Measurements published in patent US10738101B2, “Method for selecting odor-controlling substance” (Kao Corporation, priority 2015, dated 2020).

Legend:
muscone odor = assay: Sensory test of cross-adaptation, target odor muscone; format: in vivo, human; conditions: panelists, test sample smelled before target sample, FIG. 6A
Experimental: (§1) The cross-adaptation effect induced by the odorous substance evaluated in Example 2 was estimated by a sensory test. A glass bottle (No. 11, manufactured by Hakuyo Glass Co., Ltd., capacity: 110 mL) was charged with a target odorous substance to be used as a target sample. As the target odorous substance, muscone, guaiacol or p-cresol was used. As the muscone, a cotton ball soaked with 1 mg of muscone was used. As the guaiacol and p-cresol, 1 mL of a mineral oil (Sigma-Aldrich) solution in a concentration of 10 ppm was used. In a similar manner, a glass bottle was charged with a test substance to be used as a test sample. As the test sample, 5 mg of an ethyl vanillin powder, or 1 mL of a mineral oil (Sigma-Aldrich) solution of p-cresyl acetate, p-cresyl isobutyrate or p-methyl quinoline prepared to a concentration of 1,000 ppm was used.
(§2) The sensory test was performed by a single blind method by five to eight panelists. The target sample was first presented to each panelist, who was caused to replay on the odor intensity. Next, the test sample was presented for 2 minutes or until the odor could not be perceived. Thereafter, the target sample was presented again, and the panelist was caused to replay on the odor intensity. This series of operations was defined as one set, and the sensory test was carried out with four sets per day per panelist set as the upper limit. A recess of at least 10 minutes or more was provided between the sets.
The panelist was caused to plot the estimated intensity of the target odor on a straight line of 9.5 cm with both ends respectively provided with criteria “No odor” and “Strong odor”. A distance (A) between the position of the target odor intensity plotted in the initial estimate and the end of “No odor”, and a distance (B) between the position of the target odor intensity plotted in the second estimate and the end of “No odor” were obtained, so as to calculate percentage odor intensity of the initial estimate [B/A*100−100]. […]

OR5AN1 = biological target: T1, OR5AN1 (Homo sapiens, UniProt Q8NGI8); assay: Luciferase reporter gene assay, OR5AN1-expressing HEK293 cells; format: cell-based; conditions: 0.3 μM to 100 μM, vs Mock cells, FIG. 3
T1 construct: expressed in transfected cells; host or cells: HEK293
T1 sequence (Q8NGI8 1-311): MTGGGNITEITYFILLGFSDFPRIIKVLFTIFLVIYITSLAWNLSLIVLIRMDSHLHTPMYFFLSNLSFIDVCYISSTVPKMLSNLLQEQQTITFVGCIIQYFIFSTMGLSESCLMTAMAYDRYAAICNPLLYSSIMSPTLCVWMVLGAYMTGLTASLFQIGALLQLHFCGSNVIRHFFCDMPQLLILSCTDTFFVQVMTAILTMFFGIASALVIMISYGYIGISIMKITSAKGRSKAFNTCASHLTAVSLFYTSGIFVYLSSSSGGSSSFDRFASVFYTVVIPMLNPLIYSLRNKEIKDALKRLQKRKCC
Excerpt: (§3) On the basis of sequence information registered in GenBank, genes respectively encoding 370 human olfactory receptors shown in Tables 1-1 and 1-2 and genes respectively encoding the human olfactory receptors OR5AN1, OR10G4 and OR9Q2 (respectively set forth in SEQ ID NOS: 1, 3 and 5) were cloned. Each of the genes was cloned by the PCR using human genomic DNA person (G1521: Promega) as a template. Each gene amplified by the PCR was incorporated into a pENTR vector (Invitrogen) in accordance with the instruction, and was recombined to NotI and AscI sites produced downstream from a Flag-Rho tag sequence on a pME18S vector by using NotI and AscI sites present on the pENTR vector.
(§4) In 1) of Example 1, HEK293 cells on which the 370 human olfactory receptors were respectively expressed were produced. A reaction solution having a composition shown in Table 2 was prepared and allowed to stand still in a clean bench for 15 minutes, and the resultant was added by 4.4 μL per well in a 384-well plate (BioCoat). Subsequently, the HEK293 cells (20×10^4 cells/cm^2) were seeded by 40 μL per well, and the resultant was cultured for 24 hours in an incubator kept at 37° C. and 5% CO2.
(§5) In 2) of Example 1 and Examples 2 and 3, HEK293 cells in which the human olfactory receptor OR5AN1, OR10G4, OR9Q2 or OR1A1 was expressed were produced. A reaction solution having a composition shown in Table 3 was prepared and allowed to stand still in a clean bench for 15 minutes, and the resultant was added by 10 μL per well in a 96-well plate (BioCoat). Subsequently, the HEK293 cells (3×10^5 cells/cm^2) were seeded by 90 μL per well, and the resultant was cultured for 24 hours in an incubator kept at 37° C. and 5% CO2. Cells obtained under conditions for not expressing the olfactory receptor (Mock) were also prepared to be used as a control, and were used similarly in an experiment.
(§6) The olfactory receptor expressed on the HEK293 cells increases the intracellular cAMP amount by activating adenylate cyclase in conjugation with intracellular Gαs. In the measurement of odor response in this study, luciferase reporter gene assay for monitoring the increase of the intracellular cAMP amount as a luminescence value derived from a firefly luciferase gene (fluc2P-CRE-hygro) was employed. Besides, a fused Renilla luciferase (hRluc-CMV) gene was simultaneously transferred downstream of the CMV promoter, so as to be used as an internal standard for correcting the gene transfer efficiency or an error in the number of cells. For measuring the activity of the luciferase, Dual-Glo(™) Luciferase Assay System (Promega) was used, and the measurement was performed in accordance with the operation instruction of the product. Under each of various stimulation conditions, a value fLuc/hRluc obtained by dividing a firefly luciferase-derived luminescence value by a Renilla luciferase-derived luminescence value was calculated. A value obtained by dividing a value fLuc/hRluc induced by stimulation with an odorous substance by a value fLuc/hRluc of a cell not stimulated with the odorous substance was obtained as fold increase, which was used as an index of the response intensity. A dose-response curve was analyzed using Graph Pad Prism.
(§7) The medium was removed from each of the cultures of the olfactory receptor expressing cells produced according to Reference Example 1, and an odorous substance (muscone, guaiacol or p-cresol) was added thereto. A DMEM medium (Nacalai) containing muscone or guaiacol was added to a 384-well plate containing the culture by 30 μL per well (to a final concentration of muscone of 100 μM and of guaiacol of 1 mM). Alternatively, a CD293 medium (Invitrogen) containing p-cresol was added to a 96-well plate containing the culture by 75 μL per well (to a final concentration of 1 mM). […]

OR1A1 = biological target: T2, OR1A1 (Homo sapiens, UniProt Q9P1Q5); assay: Luciferase reporter gene assay, OR1A1-expressing HEK293 cells; format: cell-based; conditions: 0.3 μM to 100 μM, vs Mock cells, FIG. 4
T2 construct: expressed in transfected cells; host or cells: HEK293
T2 sequence (Q9P1Q5 1-309): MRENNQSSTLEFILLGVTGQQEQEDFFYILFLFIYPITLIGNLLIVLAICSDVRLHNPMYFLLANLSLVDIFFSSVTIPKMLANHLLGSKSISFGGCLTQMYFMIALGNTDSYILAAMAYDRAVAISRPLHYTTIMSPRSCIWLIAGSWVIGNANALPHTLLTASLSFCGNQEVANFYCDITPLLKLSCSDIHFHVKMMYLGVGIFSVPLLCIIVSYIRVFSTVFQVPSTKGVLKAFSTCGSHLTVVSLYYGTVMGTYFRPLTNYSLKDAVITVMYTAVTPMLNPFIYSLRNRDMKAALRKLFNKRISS
Excerpt: as §3, §4
In 2) of Example 1 and Examples 2 and 3, HEK293 cells in which the human olfactory receptor OR5AN1, OR10G4, OR9Q2 or OR1A1 was expressed were produced. […]
The olfactory receptor expressed on the HEK293 cells increases the intracellular cAMP amount by activating adenylate cyclase in conjugation with intracellular Gαs. In the measurement of odor response in this study, luciferase reporter gene assay for monitoring the increase of the intracellular cAMP amount as a luminescence value derived from a firefly luciferase gene (fluc2P-CRE-hygro) was employed. […] Under each of various stimulation conditions, a value fLuc/hRluc obtained by dividing a firefly luciferase-derived luminescence value by a Renilla luciferase-derived luminescence value was calculated. […] A dose-response curve was analyzed using Graph Pad Prism. […]

OR10G4 = biological target: T3, OR10G4 (Homo sapiens, UniProt Q8NGN3); assay: Luciferase reporter gene assay, OR10G4-expressing HEK293 cells; format: cell-based; conditions: for responsiveness of OR10G4 (fold increase): FIG. 5A, 5C
T3 construct: expressed in transfected cells; host or cells: HEK293
T3 sequence (Q8NGN3 1-311): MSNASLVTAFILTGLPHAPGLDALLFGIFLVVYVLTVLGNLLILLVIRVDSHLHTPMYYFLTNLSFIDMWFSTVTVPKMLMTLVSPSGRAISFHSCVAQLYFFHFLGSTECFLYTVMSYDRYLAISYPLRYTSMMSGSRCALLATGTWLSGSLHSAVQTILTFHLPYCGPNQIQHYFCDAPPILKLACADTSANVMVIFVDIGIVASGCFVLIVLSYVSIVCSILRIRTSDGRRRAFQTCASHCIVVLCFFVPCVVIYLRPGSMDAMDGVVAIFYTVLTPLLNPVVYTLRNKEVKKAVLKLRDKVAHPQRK
Excerpt: as §3, §4, §5
as §6, with “For measuring the activity of the luciferase, Dual-Glo(™) Luciferase Assay System (Promega) was used, and the measurement was performed in accordance with the operation instruction of the product.” left out, “A value obtained by dividing a value fLuc/hRluc induced by stimulation with an odorous substance by a value fLuc/hRluc of a cell not stimulated with the odorous substance was obtained as fold increase, which was used as an index of the response intensity.” left out, “Prism. […]” for “Prism.”

odor of guaiacol = assay: Sensory test of cross-adaptation, target odor guaiacol; format: in vivo, human; conditions: panelists, test sample smelled before target sample, FIG. 6B
Experimental: as §1
as §2, with “A recess of at least 10 minutes or more was provided between the sets.” left out

OR9Q2 = biological target: T4, OR9Q2 (Homo sapiens, UniProt Q8NGE9); assay: Luciferase reporter gene assay, OR9Q2-expressing HEK293 cells; format: cell-based; conditions: for responsiveness of OR9Q2 (fold increase): FIG. 2, 5B, 5C
T4 construct: expressed in transfected cells; host or cells: HEK293
T4 sequence (Q8NGE9 1-314): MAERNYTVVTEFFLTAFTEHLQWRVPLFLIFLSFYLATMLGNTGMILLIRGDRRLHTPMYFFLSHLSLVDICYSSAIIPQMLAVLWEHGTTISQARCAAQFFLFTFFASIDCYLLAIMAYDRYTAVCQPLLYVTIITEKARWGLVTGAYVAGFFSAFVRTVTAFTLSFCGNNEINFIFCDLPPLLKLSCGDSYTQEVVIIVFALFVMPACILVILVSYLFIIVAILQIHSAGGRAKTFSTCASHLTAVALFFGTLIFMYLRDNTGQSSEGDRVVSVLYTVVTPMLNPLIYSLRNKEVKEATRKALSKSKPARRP
Excerpt: as §3, §4, §5, §6, §7

odor of p-cresol = assay: Sensory test of cross-adaptation, target odor p-cresol; format: in vivo, human; conditions: panelists, test sample smelled before target sample, FIG. 6C
Experimental: as §1, §2
The panelist was caused to plot the estimated intensity of the target odor on a straight line of 9.5 cm with both ends respectively provided with criteria “No odor” and “Strong odor”. A distance (A) between the position of the target odor intensity plotted in the initial estimate and the end of “No odor”, and a distance (B) between the position of the target odor intensity plotted in the second estimate and the end of “No odor” were obtained, so as to calculate percentage odor intensity of the initial estimate [B/A*100−100]. As this value is smaller, the intensity of the target odor perceived in the second estimate is suppressed stronger as compared with that in the initial estimate, namely, stronger cross-adaptation is induced. If this value is −100%, it means that the target odor was not perceived at all in the second estimate.

O=C1CCCCC=CCCCCCCCCCO1 [Ambrettolide, 17-oxacycloheptadec-6-en-1-one]
cross-adaptation of muscone odor induced by test substance (muscone odor): did not induce the cross-adaptation
activation of OR5AN1 response (fold increase) (OR5AN1): did not induce the response

CC/C=C\CCO [Cis-3-hexenol]
cross-adaptation of muscone odor induced by test substance (muscone odor): did not induce the cross-adaptation
activation of OR1A1 response (fold increase) (OR1A1): activated
activation of OR5AN1 response (fold increase) (OR5AN1): did not induce the response

O=C1CCCCCCCCCCCCCCO1 [Exaltolide (R), 16-oxacyclohexadecan-1-one]
activation of OR5AN1 response (fold increase) (OR5AN1): activating the response

O=C1CCCCCCC=CCCCCCCC1 [Globanone, cyclohexadec-8-en-1-one]
activation of OR5AN1 response (fold increase) (OR5AN1): activating the response

CC(C)(O)CCCC1=CCC(C=O)CC1 [Lyral (R), 4-(4-hydroxy-4-methyl-pentyl)-cyclohex-3-enecarbaldehyde]
activation of OR5AN1 response (fold increase) (OR5AN1): did not induce the response

CC1CC=CCCCCCCCCCC(=O)C1 (centres unmarked) [Muscenone delta, 3-methyl-5-cyclopentadecen-1-one]
activation of OR5AN1 response (fold increase) (OR5AN1): activating the response

Cc1c([N+](=O)[O-])c(C)c([N+](=O)[O-])c(C(C)(C)C)c1[N+](=O)[O-] [Musk xylol, 1-tert-butyl-3,5-dimethyl-2,4,6-trinitrobenzene]
activation of OR5AN1 response (fold increase) (OR5AN1): activating the response

CCOc1cc(C=O)ccc1O [ethyl vanillin, 3-ethoxy-4-hydroxybenzaldehyde]
responsiveness of OR10G4 (fold increase) (OR10G4): had responsiveness
cross-adaptation of guaiacol odor induced by test substance (odor of guaiacol): induced

COc1ccccc1O [guaiacol, 2-methoxyphenol]
responsiveness of OR10G4 (fold increase) (OR10G4): had responsiveness
responsiveness of OR10G4 among 370 olfactory receptors (response intensity, fold increase) (OR10G4; screen of 370 human olfactory receptors, guaiacol 1 mM, FIG. 1): highest responsiveness

Cc1ccc(O)cc1 [p-cresol, p-Cresol]
responsiveness of OR9Q2 (fold increase) (OR9Q2): have responsiveness
concentration dependency of OR9Q2 response (OR9Q2; different concentrations, FIG. 2): showed response to p-cresol dependently on the concentration
responsiveness of OR9Q2 among 370 olfactory receptors (response intensity, fold increase) (OR9Q2; screen of 370 human olfactory receptors, p-cresol 1 mM, FIG. 1): highest responsiveness

CC(=O)Oc1ccc(C)cc1 [p-cresyl acetate, (4-methylphenyl)acetate]
responsiveness of OR9Q2 (fold increase) (OR9Q2): have responsiveness
cross-adaptation of p-cresol odor induced by test substance (odor of p-cresol): induced

Cc1ccc(OC(=O)C(C)C)cc1 [p-cresyl isobutyrate, (4-methylphenyl)2-methylpropanoate]
responsiveness of OR9Q2 (fold increase) (OR9Q2): have responsiveness
cross-adaptation of p-cresol odor induced by test substance (odor of p-cresol): induced

Cc1ccc2ncccc2c1 [p-methyl quinoline, 6-methyl quinoline]
responsiveness of OR9Q2 (fold increase) (OR9Q2): have responsiveness
cross-adaptation of p-cresol odor induced by test substance (odor of p-cresol): induced

OCCc1ccccc1 [phenyl ethyl alcohol (PEA), 2-phenylethanol]
cross-adaptation of muscone odor induced by test substance (muscone odor): did not induce the cross-adaptation
activation of OR1A1 response (fold increase) (OR1A1): activated
activation of OR5AN1 response (fold increase) (OR5AN1): did not induce the response
